Measured values taken from PMC7381750, “JP1 suppresses proliferation and metastasis of melanoma through MEK1/2 mediated NEDD4L-SP1-Integrin αvβ3 signaling” (Theranostics, 2020).

Tested on: B16F10 cell
Experiment: B16F10 melanoma-bearing model, JP1 and DTIC alone or in combination
Format: in vivo, mouse
Description: (A-C) (A) Schematic representation of the B16F10 and MEWO cells melanoma-bearing model for JP1 treatment (n = 6 per group). JP1 and its control agents were administered by intraperitoneal injection. […] (D-G) (D) Schematic representation of the B16F10 cell melanoma passive metastasis model for JP1 treatment. JP1 and its control agents were administered by intraperitoneal injection. […] (F) The representative melanoma lung metastatic images by H&E-staining (scale bars, 1000 μm). […] (J-L) (J) Schematic representation of the B16F10 cell melanoma-bearing model (n= 6 per group). Both JP1 and DTIC alone or in combination treatments and relative control was administered by intraperitoneal injection in mice.
The chemotherapeutic agent dacarbazine (DTIC) is currently as the first line drug used to treat metastatic melanoma in clinic, and was reported to cause painful symptoms and acquired resistance, compromising patient quality of life. To determine the possibility as a combination therapy between DTIC and JP1, we completed a joint treatment of DTIC and JP1 for melanoma tumor-bearing model (Figure 2J).

CN(C)/N=N/c1[nH]cnc1C(N)=O [DTIC, dacarbazine]
body weight during treatment (80 mg/kg DTIC i.p.): lost body weight continuously during treatment
inhibitory effect on melanoma proliferation (80 mg/kg DTIC i.p., B16F10 melanoma-bearing mouse): more significant inhibitory effect on melanoma proliferation than that by 50 mg/kg JP1
liver HE staining (after DTIC treatment): significant degenerations in liver cells
